Laboratory results reported in paper doi:10.1101/2021.11.15.468710v2 (biorxiv, 2021).

Target: intact V-ATPase (purified yeast V-ATPase) (Saccharomyces cerevisiae, UniProt P23968+P25515+P32563+P32842)
Assay: enzyme-coupled ATPase assay
Type: biochemical

## CO/C1=C\C(C)=C\[C@@H](C)[C@@H](O)[C@@H](C)C/C(C)=C/C=C/[C@H](OC)[C@@H]([C@@H](C)[C@@H](O)[C@H](C)[C@@]2(O)C[C@@H](O)[C@H](C)[C@@H](C(C)C)O2)OC1=O [bafilomycin A1]
  IC50: < 1.11 nM
